Source: ChEMBL document CHEMBL3988442, “University of Dundee, Small-Polar-MMV Screening Library” (2021)
Several values for one entry are separate records, joined by “and”; a condition that tells them apart may be missing. Equal values may be shown once.

Tests used:
Format in all cases: functional
Wolbachia pipientis = test: Anti-Wolbachia Cell-Based Screen; details: for IC50: Wolbachia pipientis
[1] = biological target: T1, Coenzyme A biosynthesis bifunctional protein CoaBC (Mycobacterium tuberculosis (strain ATCC 25618 / H37Rv), UniProt P9WNZ1); test: Biomol Green assay for MtCoaBC inhibitor, OD650 read
T1 sequence (P9WNZ1 whole entry): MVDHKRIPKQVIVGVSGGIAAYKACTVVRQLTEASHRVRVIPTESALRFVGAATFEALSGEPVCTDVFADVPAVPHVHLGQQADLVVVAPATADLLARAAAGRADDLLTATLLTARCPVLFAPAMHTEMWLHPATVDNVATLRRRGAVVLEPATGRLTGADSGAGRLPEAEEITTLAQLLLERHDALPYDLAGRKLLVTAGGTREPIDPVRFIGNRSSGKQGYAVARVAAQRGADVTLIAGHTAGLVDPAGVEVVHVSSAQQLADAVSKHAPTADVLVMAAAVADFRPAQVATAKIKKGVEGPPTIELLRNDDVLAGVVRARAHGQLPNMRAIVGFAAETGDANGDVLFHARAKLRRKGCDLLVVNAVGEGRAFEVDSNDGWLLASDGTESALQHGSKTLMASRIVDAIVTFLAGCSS

[2] = biological target: Polyketide synthase Pks13 (Mycobacterium tuberculosis (strain ATCC 25618 / H37Rv), UniProt I6X8D2); test: Mycobacterium tuberculosis Polyketide synthase 13 Thioesterase (PKS13)
Polyketide synthase Pks13, sequence (I6X8D2 whole entry): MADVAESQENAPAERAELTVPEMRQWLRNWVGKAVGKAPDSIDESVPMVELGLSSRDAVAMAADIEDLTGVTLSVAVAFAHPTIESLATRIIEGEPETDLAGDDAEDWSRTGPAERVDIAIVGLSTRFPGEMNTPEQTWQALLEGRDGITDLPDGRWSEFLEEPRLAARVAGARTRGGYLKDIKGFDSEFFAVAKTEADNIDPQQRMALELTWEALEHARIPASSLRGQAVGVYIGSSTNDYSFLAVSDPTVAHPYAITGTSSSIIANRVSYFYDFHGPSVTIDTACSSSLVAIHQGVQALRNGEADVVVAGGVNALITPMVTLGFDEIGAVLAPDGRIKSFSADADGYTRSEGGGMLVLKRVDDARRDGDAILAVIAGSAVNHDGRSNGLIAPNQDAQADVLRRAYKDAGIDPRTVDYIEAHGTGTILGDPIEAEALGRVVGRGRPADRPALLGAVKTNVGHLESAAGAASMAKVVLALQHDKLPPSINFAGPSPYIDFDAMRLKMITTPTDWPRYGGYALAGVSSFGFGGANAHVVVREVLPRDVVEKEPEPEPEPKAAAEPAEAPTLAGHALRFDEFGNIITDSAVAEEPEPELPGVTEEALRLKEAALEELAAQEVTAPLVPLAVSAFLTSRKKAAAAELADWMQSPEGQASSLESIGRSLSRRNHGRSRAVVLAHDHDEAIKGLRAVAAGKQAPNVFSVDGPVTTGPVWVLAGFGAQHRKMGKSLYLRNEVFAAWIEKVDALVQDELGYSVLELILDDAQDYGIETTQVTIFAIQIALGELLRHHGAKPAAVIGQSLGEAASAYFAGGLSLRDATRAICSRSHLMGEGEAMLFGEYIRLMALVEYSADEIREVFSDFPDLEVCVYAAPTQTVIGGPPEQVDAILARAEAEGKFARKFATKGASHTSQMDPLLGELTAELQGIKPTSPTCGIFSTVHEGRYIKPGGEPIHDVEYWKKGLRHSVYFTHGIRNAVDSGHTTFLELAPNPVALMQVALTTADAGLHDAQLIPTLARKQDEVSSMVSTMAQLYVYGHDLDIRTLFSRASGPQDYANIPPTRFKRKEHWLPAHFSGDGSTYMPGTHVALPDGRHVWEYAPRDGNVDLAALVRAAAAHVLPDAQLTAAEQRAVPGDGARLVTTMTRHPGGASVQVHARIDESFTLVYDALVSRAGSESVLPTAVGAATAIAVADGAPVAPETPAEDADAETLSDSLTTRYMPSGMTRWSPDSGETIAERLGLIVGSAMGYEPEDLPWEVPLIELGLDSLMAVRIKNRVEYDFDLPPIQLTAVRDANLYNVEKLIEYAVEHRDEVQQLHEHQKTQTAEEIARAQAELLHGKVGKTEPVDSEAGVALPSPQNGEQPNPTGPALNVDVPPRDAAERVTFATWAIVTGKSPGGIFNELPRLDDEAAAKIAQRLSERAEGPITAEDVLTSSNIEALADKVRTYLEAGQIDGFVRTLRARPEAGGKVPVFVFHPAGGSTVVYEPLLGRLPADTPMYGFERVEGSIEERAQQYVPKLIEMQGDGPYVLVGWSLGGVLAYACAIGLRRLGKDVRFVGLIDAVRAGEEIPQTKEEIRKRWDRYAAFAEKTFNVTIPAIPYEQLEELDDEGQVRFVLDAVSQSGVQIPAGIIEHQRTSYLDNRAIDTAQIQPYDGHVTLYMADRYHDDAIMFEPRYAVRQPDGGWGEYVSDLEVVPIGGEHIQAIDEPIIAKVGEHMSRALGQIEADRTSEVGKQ

Lysine--tRNA ligase = Lysine--tRNA ligase (Plasmodium falciparum (isolate 3D7), UniProt Q8IDJ8); test: Pf-KRS-1 (Lysyl-RNA Synthetase-1, KRS-1, cytosolic KRS) from Plasmodium falciparum. Inhibitor assay, 384 well plate, luminescence read.
Lysine--tRNA ligase, sequence (Q8IDJ8 whole entry): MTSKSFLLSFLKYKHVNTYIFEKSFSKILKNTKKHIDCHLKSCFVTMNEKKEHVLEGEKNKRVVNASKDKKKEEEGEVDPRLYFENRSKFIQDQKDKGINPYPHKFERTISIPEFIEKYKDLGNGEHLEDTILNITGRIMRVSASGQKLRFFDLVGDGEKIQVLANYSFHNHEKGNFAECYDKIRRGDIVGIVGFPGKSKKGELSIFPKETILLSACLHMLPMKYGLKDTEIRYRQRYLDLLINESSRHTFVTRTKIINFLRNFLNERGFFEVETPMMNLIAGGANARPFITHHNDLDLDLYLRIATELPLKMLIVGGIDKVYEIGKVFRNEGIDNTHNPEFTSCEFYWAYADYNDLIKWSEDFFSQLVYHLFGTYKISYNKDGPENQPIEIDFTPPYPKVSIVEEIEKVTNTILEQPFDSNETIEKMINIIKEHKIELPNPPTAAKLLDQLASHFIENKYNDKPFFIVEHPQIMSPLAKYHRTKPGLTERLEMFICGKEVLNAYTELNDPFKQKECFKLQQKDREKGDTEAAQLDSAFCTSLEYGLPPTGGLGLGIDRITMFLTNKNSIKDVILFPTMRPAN

ClpP1P2 = ClpP1P2 (Mycobacterium tuberculosis (strain ATCC 25618 / H37Rv), UniProt P9WPC3+P9WPC5); test: in vitro assay to detect presence of AMC directly proportional to the activity of ClpP1P2. GHDDI collaboration.
ClpP1P2, sequence (P9WPC5 whole entry): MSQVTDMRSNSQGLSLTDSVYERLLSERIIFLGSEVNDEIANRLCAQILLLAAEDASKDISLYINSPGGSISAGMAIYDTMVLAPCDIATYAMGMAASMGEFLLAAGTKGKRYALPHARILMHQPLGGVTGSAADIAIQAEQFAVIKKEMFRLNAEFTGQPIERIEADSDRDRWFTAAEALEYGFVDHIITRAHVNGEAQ
ClpP1P2, sequence (P9WPC3 whole entry): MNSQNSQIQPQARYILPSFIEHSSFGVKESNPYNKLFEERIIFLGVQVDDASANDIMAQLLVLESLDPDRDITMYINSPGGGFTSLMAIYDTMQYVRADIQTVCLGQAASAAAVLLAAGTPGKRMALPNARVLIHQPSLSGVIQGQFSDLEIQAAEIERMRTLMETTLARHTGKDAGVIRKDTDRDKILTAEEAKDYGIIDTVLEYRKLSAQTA

Histidine--tRNA ligase = biological target: T2, Histidine--tRNA ligase (Leishmania infantum, UniProt A4I591); test: Leishmania infantum Histidine tRNA synthetase (LdHisRS)
T2 sequence (A4I591 whole entry): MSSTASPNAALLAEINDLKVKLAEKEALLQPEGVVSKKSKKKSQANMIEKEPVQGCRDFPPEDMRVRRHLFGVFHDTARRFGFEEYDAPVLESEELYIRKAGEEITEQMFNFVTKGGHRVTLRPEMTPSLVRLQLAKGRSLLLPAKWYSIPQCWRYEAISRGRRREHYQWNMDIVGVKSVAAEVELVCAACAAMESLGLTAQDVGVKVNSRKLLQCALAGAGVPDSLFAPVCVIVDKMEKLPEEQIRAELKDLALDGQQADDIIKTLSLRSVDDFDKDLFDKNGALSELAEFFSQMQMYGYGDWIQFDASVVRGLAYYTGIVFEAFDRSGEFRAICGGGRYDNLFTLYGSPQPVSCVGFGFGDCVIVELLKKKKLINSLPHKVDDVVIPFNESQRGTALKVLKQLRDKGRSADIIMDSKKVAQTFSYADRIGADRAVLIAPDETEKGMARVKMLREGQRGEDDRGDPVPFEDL

c1cnn(CC2CCCN2c2ncnc3ccsc23)c1 (centres undefined)
pIC50 (Wolbachia pipientis): 5.454
IC50 (Wolbachia pipientis): 3.17 µM

COCCCN1Cc2cccc(NC(=O)C(C)(C)C)c2C1
IC50 (Wolbachia pipientis): > 10 µM

O=C(NCCN1CCOCC1)N(CCCO)C1CCCc2ccccc21 (centres undefined)
IC50 (Wolbachia pipientis): > 10 µM

CCOc1cc(/C=C/c2ncc(C(=O)O)s2)cc(Br)c1O
IC50 [1]: > 30.2 µM
IC50 [2]: > 100 µM and 24.3 µM

O=C(Nc1ccnc(OC2CCOC2)c1)c1ccccc1Cl (centres undefined)
pIC50 (Wolbachia pipientis): 5.461 and 5.05

c1ccc(O[C@H]2COCCN(Cc3c[nH]c4ccccc34)C2)cc1
pIC50 (Wolbachia pipientis): 5.37
IC50 (Wolbachia pipientis): 6.98 µM

Cn1c(=O)n(C)c2cc(C3SCC(=O)Nc4ccsc43)ccc21 (centres undefined)
pIC50 (Wolbachia pipientis): 5.481
IC50 (Wolbachia pipientis): 2.44 µM

CCn1cc(NC(=O)c2cccc(CN3C[C@@H](C)O[C@@H](C)C3)c2)nn1
pIC50 (Wolbachia pipientis): < 5
IC50 (Wolbachia pipientis): 8.23 µM

CCC(C)n1cnc(S(=O)(=O)N(Cc2cccnc2)C(C)C)c1 (centres undefined)
IC50 (Wolbachia pipientis): > 10 µM

Cc1cc(CN2CCCC2)cc(Oc2nc(C)cnc2C)c1
IC50 (Wolbachia pipientis): > 10 µM

CC(C)[C@@H]1CN(C2CCN(Cc3ccccc3)CC2)C[C@H]1NS(C)(=O)=O
pIC50 (Wolbachia pipientis): 5.381
IC50 (Wolbachia pipientis): 3.75 µM

CC1(C(=O)N2CCN(c3ncccn3)CC2)CNCCO1 (centres undefined)
IC50 (Wolbachia pipientis): > 10 µM

CN(C)C(=O)[C@H]1C[C@@H]2CN(S(=O)(=O)Cc3ccccc3)C[C@H]1O2
IC50 (Wolbachia pipientis): > 10 µM

CC(C)Cc1cc(C(=O)NCC2CCCN(Cc3ccco3)C2)on1 (centres undefined)
pIC50 (Wolbachia pipientis): 5.687
IC50 (Wolbachia pipientis): 1.41 µM

CCc1cc(N(C)Cc2cc[nH]n2)n2nc(C)c(C)c2n1
pIC50 (Wolbachia pipientis): 5.579
IC50 (Wolbachia pipientis): 4.79 µM

O=C1CC(c2ccc3ccccc3n2)c2c(n[nH]c2C2CCC2)N1 (centres undefined)
IC50 (Wolbachia pipientis): > 10 µM

Cc1nn(C)c2nc(N3CCCC3c3nccs3)sc12 (centres undefined)
pIC50 (Wolbachia pipientis): 5.818
IC50 (Wolbachia pipientis): 1.82 µM

Cc1n[nH]c(C)c1CCC(=O)N(C)Cc1cn[nH]c1-c1ccc(F)cc1
pIC50 (Wolbachia pipientis): 5.21
IC50 (Wolbachia pipientis): 5.81 µM

Cc1cc2nc(C(C)C)cc(NCC(c3ccccn3)N(C)C)n2n1 (centres undefined)
pIC50 (Wolbachia pipientis): 5.809
IC50 (Wolbachia pipientis): 1.75 µM

CCCOC(C)Cn1ccc2[nH]c(=O)c(C#N)cc2c1=O (centres undefined)
IC50 (Lysine--tRNA ligase): > 50.1 µM
IC50 [2]: 28.5 µM and 11.6 µM
IC50 (ClpP1P2): > 100 µM

CC(C(=O)N1CCCN(Cc2cnn(C)c2)CC1)n1ccnc1 (centres undefined)
IC50 (Wolbachia pipientis): > 10 µM

Cc1cnc2c(C(=O)N3CCCC(OCc4ccccn4)C3)cnn2c1 (centres undefined)
IC50 [1]: > 30.2 µM
IC50 [2]: > 100 µM

O=C(Nc1ccccn1)NC(CCCO)c1ccccc1 (centres undefined)
pIC50 (Wolbachia pipientis): < 5
IC50 (Wolbachia pipientis): 6.17 µM

CC(c1ccco1)N(C)Cc1cccc(C(=O)Nc2nccn2C)c1 (centres undefined)
pIC50 (Wolbachia pipientis): 5.538
IC50 (Wolbachia pipientis): 3.77 µM

O=C1O[C@@H]2CN(C3CCOCC3)C[C@@H]2N1CCCc1ccc(F)cc1
IC50 (Wolbachia pipientis): > 10 µM

Cc1nn(C)c2nc(N3CCCCC3c3nccs3)sc12 (centres undefined)
pIC50 (Wolbachia pipientis): 7.075
IC50 (Wolbachia pipientis): 0.156 µM

CC(C)c1cc(CSCCC(=O)O)no1
pIC50 (Wolbachia pipientis): 5.282
IC50 (Wolbachia pipientis): 3.09 µM

Cc1ccc(F)c2c1N(C(=O)Cc1c(C)nn(C)c1C)CCC2
pIC50 (Wolbachia pipientis): 5.021
IC50 (Wolbachia pipientis): 8.03 µM

COc1ccccc1OCCN(C)c1cc(C)nc(N)n1
IC50 (Wolbachia pipientis): > 10 µM

O=C(O)C(F)(F)F.O=C(O)c1c(-c2cccnc2)ncc2c1CCN(CC1CCOC1)C2 (centres undefined)
pIC50 (Wolbachia pipientis): < 5
IC50 (Wolbachia pipientis): 7.49 µM

NS(=O)(=O)c1cnn(CCC(=O)N(Cc2ccccc2)C2CC2)c1
IC50 (Wolbachia pipientis): > 10 µM

CCc1cc(C(=O)N2CCC3(CCCN(CC4CC4)C3=O)C2)cs1 (centres undefined)
IC50 (Wolbachia pipientis): > 10 µM

CC(=O)N1CCN(C(=O)CCn2c(C)nc3ccccc3c2=O)CC1
IC50 (Wolbachia pipientis): > 10 µM

COc1ccc(C(C#N)NC(=O)Cc2ccc(F)c(F)c2)c(OC)c1 (centres undefined)
pIC50 (Wolbachia pipientis): 5.528
IC50 (Wolbachia pipientis): 3 µM

Cc1nc2cc(-c3nccn3C)nn2c(N2CCCC2)c1C
pIC50 (Wolbachia pipientis): < 5
IC50 (Wolbachia pipientis): 9.95 µM

O=C(CCc1ccc(Cl)s1)N1CCC(N2CCNC2=O)CC1
IC50 (Wolbachia pipientis): > 10 µM

O=C(CCc1ccccc1Cl)NS(=O)(=O)c1ccc2c(c1)OCCO2
IC50 (Wolbachia pipientis): > 10 µM

CC(=O)N(Cc1noc(C2CC2)n1)C1CCN(Cc2cccnc2)C1 (centres undefined)
IC50 (Wolbachia pipientis): > 10 µM

COc1ccccc1N1CCC(CNS(=O)(=O)c2cccc(C#N)c2)C1 (centres undefined)
IC50 [1]: > 30.2 µM
IC50 [2]: 49.7 µM and > 100 µM

Cc1ccc2[nH]c(CO[C@H]3CN(c4ccc(C#N)cn4)C[C@H]3F)nc2c1
IC50 [1]: > 50.1 µM
IC50 (Lysine--tRNA ligase): > 50.1 µM
IC50 (Histidine--tRNA ligase): 27.1 µM and 37.7 µM
IC50 [2]: 26.6 µM
IC50 (ClpP1P2): 7.25 µM

Cc1ncc2c(n1)CN(CCCc1nc3ccccc3o1)CC2
IC50 (Lysine--tRNA ligase): > 50.1 µM
IC50 [2]: > 100 µM
